Measured values taken from patent US9956304B2, “Contrast agents, methods for preparing contrast agents, and methods of imaging” (GEORGIA STATE UNIVERSITY RESEARCH FOUNDATION, INC., priority 2012, dated 2018).
Read-outs that look alike come from different tables or passages of the source.

What was measured:
[1] = in vivo; cited from earlier work
[2] = system: uveal melanoma metastasis in liver; set-up: species or system PEDF knockout mice; details: mouse, in vivo
[3] = human, cited from earlier work
[4] = T1- and T2-weighted MRI of liver and blood vessels; format: in vivo, mice; details: mouse, in vivo
Procedure: Because the enhanced T1- and T2-weighted images have different effects of imaging contrast (brighter or darker, respectively), there is an enhanced probability of detecting the targeted tumor tissue. In contrast, the currently available approved liver contrast agents such as Eovist® have a very short fast phase (sec.) and liver uptake phase (approximately 3 min) in human. The mouse halftime is much shorter. Due this limitation, with these agents, it is not possible to obtain both high quality imaging for small animal. For human, their applications are also limited by their low relaxivity and short half-life. It is possible to obtain very high quality imaging by applying our contrast agent to both low and high field strengths such as 0.47-9.4 T.
Longer blood circulation of ProCA will benefit the MRI guided intervention therapy […], since such therapy usually performed for a very long time. Long blood circulation time of ProCA32 in blood also promising for the application of DCE-MRI. Arterial input function (AIF) in DCE-MRI experiment is the key experiment for successful calculating tumor permeability. However, it is hard to accurate determine AIF of current clinically available MRI contrast agents, since the blood circulation time of current clinically available MRI contrast agents is too short. […]

[5] = read-out: Kd to Gd^3+ (other's result); cited from earlier work
[6] = Gd3+ Kd by FLUO-5N titration and competition; format: binding; details: 2 mM nitrilotriacetate buffer; read-out: Kd to Gd^3+
Procedure: The buffer system contained 2 mM nitrilotriacetate. The fluorescence signal of FLUO-5N increased till it was up to saturation state. The fluorescence signal intensity plots were fitted by hill equation.
The Kd of ProCA1 variants to Gd^3+ was determined by the competition between ProCA1 variants and FLUO-5N. When the concentrations of FLUO-5N and Gd^3+ were fixed, ProCA1 variants were gradually added to the sample solution to compete Gd^3+ with FLUO-5N.
Where Kd1 is the dissociation constant for FLUO-5N, [FLUO-5N]T is the total concentration of FLUO-5N, Kapp is the apparent dissociation constant for protein and Kd2 is the dissociation constant for protein.

[7] = mouse, in vivo; cited from earlier work
[8] = In vivo MRI detection limit (kidney/liver enhancement); set-up: species or system mice; details: 1.6 μmol/kg
[9] = Arterial input function study, 9.4 T; details: mouse, in vivo
[10] = mice; cited from earlier work
[11] = Organ distribution and accumulation of Gd3+ by ICP-OES; details: 10 minutes post i.v. injection
[12] = kidney; Gd-DTPA 0.2 mmol/kg, Gd-ProCA32 0.02 mmol/kg
[13] = mouse, in vivo, iv
[14] = cited from earlier work
integrin = details: read-out: binding affinity between RGD and integrin; cited from earlier work
[15] = Fura-2 competition assay (Gd3+ loaded Fura-2); format: binding; details: Gd^3+ loaded Fura-2 20 μM, protein 10-20 μM
Procedure: To test our hypothesis and screening ProCA candidates with highest thermodynamic stability, Gd^3+ binding affinity and metal selectivity of ProCAs were measured by metal-chelator buffer system. ProCA3 variants were purified using Henzl's method with large modification. […] The Tb^3+-binding affinity of calcium-binding protein was measured by Tb^3+-chelator buffer system. Free metal concentration was carefully controlled by the ratio of metal with chelators from 0 to 1. After measured the Kd of Tb^3+, the Kd of Gd^3+ to ProCA is measured by Gd^3+ competition methods. […] To better understanding the properties of our contrast agents, we introduce a tryptophan residue into the ProCA3. […] Thus, D, D, D, E, E in position 1, 3, 5, 9, 12 of EF-hand is the optimized key residues to achieve high Gd^3+ binding affinity.

CCOc1ccc(CC(CN(CCN(CC(=O)[O-])CC(=O)[O-])CC(=O)[O-])N(CC(=O)[O-])CC(=O)[O-])cc1.[Gd+3].[Na+].[Na+] (stereo not shown) [Eovist, Gd-EOB-DTPA]
hepatocyte up take [1]: 50%
retention time in the liver [1]: 30 min
tumor detection in same mice model [2]: No tumor can be detected
liver uptake phase ([3]; in vivo): approximately 3 min
effect on liver signal in T2 weighted MR images [4]: does not cause such decrease

O=C(O)CN(CC(=O)O)c1ccc(-c2c3cc(F)c(=O)cc-3oc3cc(O)c(F)cc23)cc1OCCOc1cc([N+](=O)[O-])ccc1N(CC(=O)O)CC(=O)O [FLUO-5N]
Kd [5]: 0.0038 nM
Kd [6]: 0.0052 nM

[Gd+3] [Free Gd^3+]
LD50 [7]: 0.1 mmol/kg

O=C([O-])CN(CCN(CC(=O)[O-])CC(=O)O)CCN(CC(=O)[O-])CC(=O)O.[Gd+3] [Gd-DTPA]
kidney enhancement under MRI [8]: do not show any significant kidney enhancement
AIF half-life [9]: less than 1 min
blood half-life [10]: 2 min
blood half-life [3]: 10 min
organ distribution of Gd^3+ [11]: mainly accumulated in kidney
time to maximum cortex enhancement [12]: ≤ 1 min
time to maximum medulla enhancement [12]: ≤ 1 min

[Cl][Gd]([Cl])[Cl] [GdCl3]
long term Gd^3+ accumulation in organs [13]: much higher accumulation in bone, liver and spleen
organ distribution of Gd^3+ [13]: mainly distributed in the lung and spleen

CNC[C@H](O)[C@@H](O)[C@H](O)[C@H](O)CO.CNC[C@H](O)[C@@H](O)[C@H](O)[C@H](O)CO.O=C([O-])CN(CCN(CC(=O)[O-])CC(=O)O)CCN(CC(=O)O)C(COCc1ccccc1)C(=O)[O-].[Gd+3] (stereo not shown) [Multihance, Gd-BOPTA]
hepatocyte up take [1]: 5%
retention time in the liver [1]: 1 min

O=C([O-])CN(CCN(CC(=O)[O-])CC(=O)[O-])CCN(CC(=O)[O-])CC(=O)[O-].[Na+].[Na+].[Na+].[Zn+2] [Zn-DTPA]
selectivity of Zn^2+ over Gd^3+ [14]: 4.17

Arg-Gly-Asp [RGD]
Kd (integrin): ~1000 nM

calmodulin
Gd^3+ affinity relative to Fura-2 [15]: does not shift the wavelength of Fura-2
